Laboratory results taken from patent US20200370045A1, “METHOD OF TREATING TYPE II DIABETES AND OBESITY AND METHOD OF SCREENING A MEDICAMENT FOR THE SAME” (Tsinghua University, priority 2017, published 2020).

Experiments:
Type in all cases: in vivo
microRNA-708 [1] = test: Insulin tolerance test (ITT) in obese mice treated with antisense nucleic acid of microRNA-708; conditions: 2-month old obese mice fed with HFD for two months; subcutaneously injected at 10 D/g weekly for four weeks; FIG. 15
Description: (§1) As obesity is closely related to type II diabetes, the present inventors also examined the role of microRNA-708 in insulin sensitivity, where insulin tolerance test (ITT) and glucose tolerance test (GTT) were adopted. ITTs of the microRNA-708 knockout mice were assayed 0, 15, 30, 60, and 90 min after an intraperitoneal injection of insulin (diluted as 0.5 U/ml in saline and dosed at 0.5-1.2 U insulin per kg body mass, e.g., 0.5 U insulin per kg body mass, […]) following a 4 h fast. GTTs of the microRNA-708 knockout mice were assayed 0, 15, 30, 60, and 90 min after an intraperitoneal injection of glucose (diluted as 20% glucose solution in saline and dosed at 0.5-2 g glucose per kg body mass, e.g., 1 g glucose per kg body mass) following overnight fast.
(§2) A designed RNA sequence ([…] (SEQ ID NO: 2)), reverse complementary to microRNA-708, was subcutaneously injected at 10 D/g to 2-month old obese mice (fed with HFD for two months) weekly for four weeks.

microRNA-708 [2] = test: Glucose tolerance test (GTT) in obese mice treated with antisense nucleic acid of microRNA-708; conditions: obese mice treated with antisense nucleic acids; FIG. 14
Description: as §1, §2

microRNA-708 [3] = test: Obesity level of HFD-fed obese mice treated with antisense nucleic acid of microRNA-708; conditions: 2-month old obese mice fed with HFD for two months; subcutaneously injected at 10 D/g weekly for four weeks; FIG. 13
Excerpt: as §2

For CCCAGCUAGACUUGUAAGUCCUU [SEQ ID NO: 2], which “insulin tolerance symptoms (insulin resistance)” value (microRNA-708 [1]) is on record?
Its value is “significantly alleviated”.

And the glucose tolerance (microRNA-708 [2])?
The glucose tolerance was “obvious relieved”.

What about the obesity levels (microRNA-708 [3]) of the same sequence?
Its obesity levels is “declined distinctly”.
